One test relates to KP1004 KPC-2. In words: Dose titration biapenem potentiation assay (MPC1). The class given is cell-based, Klebsiella pneumoniae. The following applies: Klebsiella pneumoniae; KP1004 KPC-2.
A further test deals with KP1008 KPC-2. In words: Dose titration biapenem potentiation assay (MPC1). The settings on record: Klebsiella pneumoniae; KP1008 KPC-2. The class given is cell-based, Klebsiella pneumoniae.
In another test the test system is EC1007 KPC-3. In words: Dose titration biapenem potentiation assay (MPC1). The class given is cell-based, Escherichia coli. The settings on record: Escherichia coli; EC1007 KPC-3. In outline:
(§1)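 Growth of carbapenemase-expressing strains measured with biapenem held at a sub-inhibitory 1 μg/mL; BLI compounds titrated from a top concentration of 40 μg/mL. MPC1 is the inhibitor concentration that restores growth inhibition by biapenem.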

For a further test, the system named is ECL1004 NMC-A. The test can be described thus: Dose titration biapenem potentiation assay (MPC1). The settings on record: Enterobacter cloacae; ECL1004 NMC-A. The class given is cell-based, Enterobacter cloacae. In outline:
as §1

Test [1] has as its system Enterobacter cloacae ECL1058 (KPC-3, SHV-11, TEM-1). In words: Checkerboard assay, Compound 5 with biapenem. The class given is cell-based. The settings on record: Enterobacter cloacae. The source says: (§2) The potentiation effect is observed by the reduction of the minimum inhibitory concentration of β-lactam antibiotics in the presence of β-lactamase inhibitors (BLIs). […] Methods for Dilution of Antimicrobial Susceptibility Tests for Bacteria That Grow Aerobically—Eighth Edition; Approved Standard. CLSI Document M07-A8, 2009). In this assay, multiple dilutions of two drugs, namely BLI and β-lactam (biapenem), are being tested, alone and in combination, at concentrations equal to, above and below their respective minimal inhibitory concentrations (MICs). BLIs are solubilized in 10% DMSO at 10 mg/mL. Stock solutions are further diluted, according to the needs of a particular assay, in Mueller Hinton Broth (MHB). Stock solution can be stored at −80° C.
(§3) The checkerboard (CB) assay is performed in microtiter plates. Biapenem is diluted in the x axis, each column containing a single concentration of antibiotic. BLIs are diluted in the y axis, each row containing an equal concentration of BLI. The result of these manipulations is that each well of the microtiter plate contains a unique combination of concentrations of the two agents. The assay is performed in MHB with a final bacterial inoculum of 5×10^5 CFU/mL (from an early-log phase culture). Microtiter plates are incubated during 20 h at 35° C. and are read using a microtiter plate reader (Molecular Devices) at 650 nm as well as visual observation using a microtiter plate reading mirror.

Test [2] has as its system Enterobacter cloacae ECL1059 (KPC-3, SHV-12, TEM-1). In words: Checkerboard assay, Compound 5 with biapenem. The settings on record: Enterobacter cloacae. The class given is cell-based.
Text: as §2, §3

For test [3], the system named is Escherichia coli EC1007 (KPC-3). In words: Checkerboard assay, Compound 5 with biapenem. The class given is cell-based. The following applies: Escherichia coli.
Text: as §2, §3

Test [4] concerns Klebsiella oxytoca KX1017 (KPC-2, OXA-2, SHV-30). In words: Checkerboard assay, Compound 5 with biapenem. The class given is cell-based. The following applies: Klebsiella oxytoca.
Text: as §2, §3

The test system of test [5] is Klebsiella oxytoca KX1018 (KPC-2, SHV-40, OXY-1). In words: Checkerboard assay, Compound 5 with biapenem. The class given is cell-based. The following applies: Klebsiella oxytoca.
Text: as §2, §3

For test [6], the system named is Klebsiella oxytoca KX1019 (KPC-2, OXA-2). In words: Checkerboard assay, Compound 5 with biapenem. The class given is cell-based. The following applies: Klebsiella oxytoca.
Text: as §2, §3

In test [7] the test system is Klebsiella pneumoniae KP1004 (KPC-2). In words: Checkerboard assay, Compound 5 with biapenem. The settings on record: Klebsiella pneumoniae. The class given is cell-based.
Text: as §2, §3

Test [8] has as its system Klebsiella pneumoniae KP1008 (KPC-2). The test can be described thus: Checkerboard assay, Compound 5 with biapenem. The class given is cell-based. The following applies: Klebsiella pneumoniae.
Text: as §2, §3

For test [9], the system named is Klebsiella pneumoniae KP1082 (KPC-2, SHV-1). The test can be described thus: Checkerboard assay, Compound 5 with biapenem. The following applies: Klebsiella pneumoniae. The class given is cell-based.
Text: as §2, §3

Test [10] deals with Klebsiella pneumoniae KP1083 (KPC-3, SHV-1, TEM-1). In words: Checkerboard assay, Compound 5 with biapenem. The class given is cell-based. The following applies: Klebsiella pneumoniae.
Text: as §2, §3

In test [11] the test system is Klebsiella pneumoniae KP1084 (KPC-3, SHV-11, TEM-1). The test can be described thus: Checkerboard assay, Compound 5 with biapenem. The class given is cell-based. The settings on record: Klebsiella pneumoniae.
Text: as §2, §3

The test system of test [12] is Klebsiella pneumoniae KP1087 (KPC-2, CTX-M-15, SHV-11, TEM-1). In words: Checkerboard assay, Compound 5 with biapenem. The class given is cell-based. The following applies: Klebsiella pneumoniae.
Text: as §2, §3

Test [13] concerns Klebsiella pneumoniae KP1088 (KPC-3, SHV-11, TEM-1). In words: Checkerboard assay, Compound 5 with biapenem. The class given is cell-based. The following applies: Klebsiella pneumoniae.
Text: as §2, §3

Test [14] concerns Escherichia coli (EC1061) NDM-1. In words: Biapenem MIC at various concentrations of Compound 5. The class given is cell-based. The settings on record: Escherichia coli.
In test [15] the test system is Klebsiella pneumonia (KP1004) KPC-2. Described as above. The class given is cell-based. The following applies: Klebsiella pneumoniae.
In test [16] the test system is Klebsiella pneumonia (KPM1097) NDM-1, KPC-2. The test is described as above. The settings on record: Klebsiella pneumoniae. The class given is cell-based.
The subject of test [17] is E. coli EC1061 (NDM-1 CMY-6). In words: Aztreonam/Tigemonam MIC at various concentrations of BLI. The class given is cell-based. The following applies: for MIC: Escherichia coli, E. coli EC1061, read-out: Tigemonam MIC. The procedure:
MIC values for each bacterial strain were measured for each antimicrobial compound at various concentrations of each BLI. […]

For test [18], the system named is bacterial strains that expressed the beta-lactamase, NDM-1 and CMY-6. In words: Aztreonam/Tigemonam MIC at various concentrations of BLI (summary). The class given is cell-based. The procedure: (§4) MIC values for each bacterial strain were measured for each antimicrobial compound at various concentrations of each BLI.
Test [19] deals with K. pneumoniae KP1081 (NDM-1, CMY-6, SHV-11, CTX-M-15, TEM-1). The test can be described thus: Aztreonam/Tigemonam MIC at various concentrations of BLI. The class given is cell-based. The following applies: KP1081. The procedure:
as §4

Test [20] deals with E. coli EC1061 (NDM-1 CMY-6). Described as above. The class given is cell-based. The following applies: Compound 68 0 μg/ml.

The results in this text go back to patent publication US20150119363A1, “METHODS OF TREATING BACTERIAL INFECTIONS” (Rampex Pharmaceuticals, Inc., priority 2012, published 2015).

In general, MIC refers to the lowest concentration found to suppress growth.

Structures are written as SMILES. Values after ≈ are worked out from the molar mass of the structure shown. Where two headings read alike, the source gives them in different places.

Turning to `C[C@@H](O)[C@H]1C(=O)N2C(C(=O)[O-])=C(SC3Cn4cnc[n+]4C3)[C@H](C)[C@H]12` (stereo partly drawn) [Biapenem, reference compound], the minimum inhibitory concentration (MIC) in the test on KP1004 KPC-2 was greater than 8 µg/mL; in the test with KP1008 KPC-2, 8 µg/mL; in the test on EC1007 KPC-3, 4 µg/mL; with ECL1004 NMC-A, 8 µg/mL; in test [1] it was greater than 4 µg/mL; in test [2] it was 0.5 to 4 µg/mL. The MIC is greater than 4 µg/mL in [3]; 0.5 to 4 µg/mL in test [4]; greater than 4 µg/mL in test [5]; greater than 4 µg/mL in [6]; greater than 4 µg/mL in [7]; greater than 4 µg/mL in [8]. Also, the MIC in test [9] is 0.5 to 4 µg/mL; in test [10], greater than 4 µg/mL; in test [11], greater than 4 µg/mL; in [12], greater than 4 µg/mL; in test [13], greater than 4 µg/mL; in test [14], 0.125 µg/mL (≈ 0.357 µM). Also, the values for the MIC in test [15] and in test [16] were 8 µg/mL (≈ 22.8 µM) and 16 µg/mL (≈ 45.7 µM), respectively.
Regarding `O=C(O)C[C@H]1C=CC[C@H](NC(=O)Cc2cccs2)B(O)O1` [Compound 68, 2-((3R,7S)-2-hydroxy-3-(2-(thiophen-2-yl)acetamido)-2,3,4,7-tetrahydro-1,2-oxaborepin-7-yl)acetic acid], the MIC in test [17] (with 0.31 μg/ml Compound A) was 0.5 µg/mL (≈ 1.62 µM). The “effect on Aztreonam or Tigemonam MICs” value in test [18] is listed as “decreased the Aztreonam or Tigemonan MICs”.
Regarding `CC1(C)[C@H](NC(=O)/C(=N\OCC(=O)O)c2csc(N)n2)C(=O)N1OS(=O)(=O)O` [Tigemonam, reference compound], the “Tigemonam MIC (μg/ml) in the presence of BLI” value in test [17] (EC1061, Compound 5 0 μg/ml) came out at 8 µg/mL; in test [19] (Compound 5 0 μg/ml), 16 µg/mL; in test [19] (Compound 68 0 μg/ml) it was 16 µg/mL; in test [20], 16 µg/mL. Besides, in [17] (tigemonam alone), the MIC was 8 µg/mL (≈ 18.3 µM).
